In US10077261B2, “Imidazolin-5-one derivative useful as FASN inhibitors for the treatment of cancer” (Janssen Pharmaceutica NV, priority 2012, dated 2018):

Legend:
A2780 ovarian cells [1] = assay: A2780 ovarian cell proliferation assay in lipid reduced medium, without palmitate (MTT); type: cell-based; settings: Homo sapiens, A2780, 96 h; read-out: pIC50 A2780 Ovarian Cell, Without Palmitate (converted)
A2780 ovarian cells [2] = assay: A2780 ovarian cell proliferation assay in lipid reduced medium, with palmitate (MTT); type: cell-based; settings: Homo sapiens, A2780, 96 h; read-out: pIC50 A2780 Ovarian Cell, With Palmitate (converted)
Outline: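 Seeded cells were switched next day to lipid-reduced serum, exposed to compound and 25 μM palmitate complexed with fatty-acid-free BSA, and incubated 96 h. Proliferation was then determined by MTT absorbance at 544 nm, with a best-fit curve of signal against concentration.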

[3] = target: T1, hFASN enzyme (full length) (Homo sapiens, UniProt P49327); assay: Fatty Acid Synthase (FASN) inhibition scintillation proximity assay; type: biochemical; settings: for inhibition at 10 µM: read-out: Human FASN % inhibition @ 10 μM, 10 μM test compound; for IC50: read-out: Human FASN pIC50 (converted)
T1 construct: 10 μL hFASN enzyme (full length, 300 ng, purified in house); made in house
Outline: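 Purified full-length hFASN (300 ng) converts ^3H-acetyl-CoA plus malonyl-CoA to ^3H-palmitate in 100 mM KH2PO4 pH 7.5, 1 mM DTT; compounds tested at 0.01–30 μM. Product captured on streptavidin imaging beads and read by LEADseeker at 610 nm after ≥24 h; 4-parameter logistic fit versus controls.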

T1 sequence (P49327 whole entry): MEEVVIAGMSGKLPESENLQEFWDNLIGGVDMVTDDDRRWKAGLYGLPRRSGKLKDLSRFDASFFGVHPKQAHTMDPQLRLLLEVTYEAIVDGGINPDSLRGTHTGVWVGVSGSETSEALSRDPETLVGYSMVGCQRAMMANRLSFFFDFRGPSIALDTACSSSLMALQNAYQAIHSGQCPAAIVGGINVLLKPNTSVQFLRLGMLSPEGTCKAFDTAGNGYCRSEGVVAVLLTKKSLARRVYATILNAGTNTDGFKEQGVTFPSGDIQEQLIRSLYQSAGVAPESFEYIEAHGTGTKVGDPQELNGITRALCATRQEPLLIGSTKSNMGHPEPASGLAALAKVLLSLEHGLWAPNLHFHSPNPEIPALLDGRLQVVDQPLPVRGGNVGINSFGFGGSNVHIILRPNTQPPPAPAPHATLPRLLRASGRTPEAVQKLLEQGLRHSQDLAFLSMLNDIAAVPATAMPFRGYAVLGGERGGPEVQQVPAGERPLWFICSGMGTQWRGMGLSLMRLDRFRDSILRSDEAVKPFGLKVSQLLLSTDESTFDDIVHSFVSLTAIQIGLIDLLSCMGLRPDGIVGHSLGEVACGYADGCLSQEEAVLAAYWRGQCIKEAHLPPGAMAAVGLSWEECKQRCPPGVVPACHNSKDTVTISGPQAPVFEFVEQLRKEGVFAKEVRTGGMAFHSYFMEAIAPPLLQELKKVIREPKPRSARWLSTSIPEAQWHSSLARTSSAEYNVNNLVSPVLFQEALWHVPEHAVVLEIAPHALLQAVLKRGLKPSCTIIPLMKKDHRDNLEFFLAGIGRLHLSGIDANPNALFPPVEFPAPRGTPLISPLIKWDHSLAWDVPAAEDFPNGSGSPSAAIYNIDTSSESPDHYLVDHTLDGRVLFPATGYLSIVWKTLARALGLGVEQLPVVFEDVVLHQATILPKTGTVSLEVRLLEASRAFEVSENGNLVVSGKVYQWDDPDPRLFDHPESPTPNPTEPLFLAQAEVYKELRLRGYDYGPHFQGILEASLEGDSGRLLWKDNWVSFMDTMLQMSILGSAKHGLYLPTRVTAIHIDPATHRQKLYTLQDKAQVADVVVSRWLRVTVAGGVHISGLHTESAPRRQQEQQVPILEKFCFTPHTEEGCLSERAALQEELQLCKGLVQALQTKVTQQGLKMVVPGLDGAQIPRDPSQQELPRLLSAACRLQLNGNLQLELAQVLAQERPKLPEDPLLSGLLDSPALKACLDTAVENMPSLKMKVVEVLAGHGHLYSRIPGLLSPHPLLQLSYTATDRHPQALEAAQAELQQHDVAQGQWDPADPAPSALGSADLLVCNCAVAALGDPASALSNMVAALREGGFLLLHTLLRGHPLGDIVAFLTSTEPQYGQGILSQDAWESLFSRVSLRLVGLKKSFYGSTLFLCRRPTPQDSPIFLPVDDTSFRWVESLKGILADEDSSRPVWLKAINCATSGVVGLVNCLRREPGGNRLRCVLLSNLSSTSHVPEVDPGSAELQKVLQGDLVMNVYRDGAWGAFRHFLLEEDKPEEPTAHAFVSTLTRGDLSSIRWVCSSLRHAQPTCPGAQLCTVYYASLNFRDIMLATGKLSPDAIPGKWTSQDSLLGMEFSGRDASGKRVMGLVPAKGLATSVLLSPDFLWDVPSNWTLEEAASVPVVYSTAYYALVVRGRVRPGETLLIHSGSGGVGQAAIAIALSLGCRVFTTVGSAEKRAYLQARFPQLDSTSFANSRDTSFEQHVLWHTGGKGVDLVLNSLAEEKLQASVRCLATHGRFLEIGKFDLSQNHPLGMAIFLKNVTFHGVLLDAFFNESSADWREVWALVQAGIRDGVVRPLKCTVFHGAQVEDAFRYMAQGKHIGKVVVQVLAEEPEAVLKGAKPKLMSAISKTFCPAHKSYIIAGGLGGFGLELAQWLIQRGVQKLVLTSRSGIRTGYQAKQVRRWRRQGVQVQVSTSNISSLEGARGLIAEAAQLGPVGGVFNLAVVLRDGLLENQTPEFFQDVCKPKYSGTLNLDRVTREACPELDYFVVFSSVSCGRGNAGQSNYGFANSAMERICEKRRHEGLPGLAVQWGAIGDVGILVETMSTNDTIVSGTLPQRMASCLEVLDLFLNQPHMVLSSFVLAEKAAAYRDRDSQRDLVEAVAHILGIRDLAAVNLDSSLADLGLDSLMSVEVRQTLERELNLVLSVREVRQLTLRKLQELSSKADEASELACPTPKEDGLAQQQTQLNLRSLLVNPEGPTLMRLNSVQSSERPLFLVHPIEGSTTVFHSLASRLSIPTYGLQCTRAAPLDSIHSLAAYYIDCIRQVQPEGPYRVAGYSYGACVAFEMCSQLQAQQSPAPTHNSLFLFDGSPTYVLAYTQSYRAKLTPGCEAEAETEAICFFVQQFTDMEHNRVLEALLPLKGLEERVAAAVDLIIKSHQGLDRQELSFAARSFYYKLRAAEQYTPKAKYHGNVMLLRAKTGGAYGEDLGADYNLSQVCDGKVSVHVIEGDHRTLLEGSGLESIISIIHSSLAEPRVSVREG

Structure (SMILES) | IC50 (A2780 ovarian cells [1]) [µM] | IC50 (A2780 ovarian cells [2]) [µM] | inhibition at 10 µM [3] [%] | IC50 [3] [µM]
O=C(C1CC1)N1CC(CN2C(=O)C3(CC3)N=C2c2ccc(-c3ccc4c(cnn4C4COC4)c3)cc2F)C1 [compound 789, 6-((1-(cyclopropanecarbonyl)azetidin-3-yl)methyl)-5-(2-fluoro-4-(1-(oxetan-3-yl)-1H-indazol-5-yl)phenyl)-4,6-diazaspiro[2.4]hept-4-en-7-one] | > 10 | > 10 | 26 | > 10
Cc1ccc2c(-c3ccc(C4=NC5(CC5)C(=O)N4CC4CN(C(=O)C5CC5)C4)cc3)cccc2n1 [compound 790, 6-((1-(cyclopropanecarbonyl)azetidin-3-yl)methyl)-5-(4-(2-methy7lquinolin-5-yl)phenyl)-4,6-diazaspiro[2.4]jept-4-en-7-one] | > 10 | > 10 | 47 | > 10
Cc1cc(-c2ccc(C3=NC4(CC4)C(=O)N3CC3CN(C(=O)C4CC4)C3)cc2)nc2cc(Br)ccc12 [compound 791, 5-(4-(7-bromo-4-methylquinolin-2-yl)phenyl)-6-((1-(cyclopropanecarbonyl)azetidin-3-yl)methyl)4,6-diazaspiro[2.4]hept-4-en-7-one] | > 6.17 | > 6.17 | -2 | > 10
Cn1ncc2nc(-c3ccc(C4=NC5(CC5)C(=O)N4CC4CN(C(=O)C5CC5)C4)cc3)ccc21 [compound 792, 6-((1-(cyclopropanecarbonyl)azetidin-3-yl)methyl)-5-(4-(1-methyl-1H-pyrazolo[4,3-b]pyridin-5-yl)phenyl)-4,6-diazaspiro[2.4]hept-4-en-7-one] | > 10 | > 10 | 38 | > 10
Cc1nnc2ccc(-c3ccc(C4=NC5(CC5)C(=O)N4CC4CN(C(=O)C5CC5)C4)cc3)cn12 [compound 793, 6-((1-(cyclopropanecarbonyl)azetidin-3-yl)methyl)-5-(4-(3-methyl-[1,2,4]triazolo[4,3-a]pyridin-6-yl)phenyl)-4,6-diazaspiro[2.4]hept-4-en-7-one] | > 10 | > 10 | 13 | > 10
CC(C)(O)c1ccc(-c2ccc(C3=NC4(CC4)C(=O)N3CC3CN(C(=O)C4CC4)C3)cc2)nc1 [compound 794, 6-((1-(cyclopropanecarbonyl)azetidin-3-yl)methyl)-5-(4-(5-(2-hydroxypropan-2-yl)pyridin-2-yl)phenyl)-4,6-diazaspiro[2.4]hept-4-en-7-one] | > 10 | > 10 | -15 | > 10
CCCc1ccc(-c2ccc(C3=NC4(CC4)C(=O)N3CC3CN(C(=O)C4CC4)C3)cc2)cn1 [compound 795, 6-((1-(cyclopropanecarbonyl)azetidin-3-yl)methyl)-5-(4-(6-propylpyridin-3-yl)phenyl)-4,6-diazaspiro[2.4]hept-4-en-7-one] | > 10 | > 10 | 34 | > 10
COC(=O)N1CC2(C1)N=C(c1ccc(-c3ccc(-c4cnn(C)c4)cc3)cc1)N(C[C@@H]1CCN(S(C)(=O)=O)C1)C2=O [compound 891, (S)-methyl 6-(4′-(1-methyl-1H-pyrazol-4-yl)-[1,1′-biphenyl]-4-yl)-7-((1-(methylsulfonyl)pyrrolidin-3-yl)methyl)-8-oxo-2,5,7-triazaspiro]3.4[ovt-5-ene-2-carboxylate] | > 10 | > 10 | 8 | > 10
CS(=O)(=O)N1CCC(CN2C(=O)C3(CCOC3)N=C2c2ccc(-c3ccc4cccnc4c3)cc2)C1 (stereo not drawn) [compound 896, 3-((1-(methylsulfonyl)pyrrolidin-3-yl)methyl)-2-(4-(quinolin-7-yl)phenyl)-7-oxa-1,3-diazaspiro[4.4]non-1-en-4-one] | > 10 | > 10 | 10 | > 10
O=C(N1CC(CN2C(=O)C3(CCOC3)N=C2c2ccc(-c3ccc4occc4c3)cc2)C1)C(F)(F)F (stereo not drawn) [compound 897, 2-(4-(benzofuran-5-yl)phenyl)-3-((1-(2,2,2-trifluoroacetyl)azetidin-3-yl)methyl)-7-oxa-1,3-diazaspiro[4.4]non-1-en-4-one] | > 10 | > 10 | 15 | > 10
CS(=O)(=O)N1CC(CN2C(=O)C3(CCOC3)N=C2c2ccc(-c3ccc4occc4c3)cc2)C1 (stereo not drawn) [compound 898, 2-(4-(benzofuran-5-yl)phenyl)-3-((1-(methylsulfonyl)azetidin-3-yl)methyl)-7-oxa-1,3-diazaspiro[4.4]non-1-en-4-one] | > 10 | > 10 | 6 | > 10
Cn1cc(-c2ccc(-c3ccc(C4=NC5(CCOC5)C(=O)N4CC4CN(C(=O)C(F)(F)F)C4)cc3)cc2)cn1 (stereo not drawn) [compound 899, 2-(4′-(1-methyl-1H-pyrazol-4-yl)-[1,1′-biphenyl]-4-yl)-3-((1-(2,2,2-trifluoroacetyl)azetidin-3-yl)methyl)-7-oxa-1,3-diazaspiro[4.4]non-1-en-4-one] | > 10 | > 10 | -10 | > 10
COC(=O)N1CC2(C1)N=C(c1ccc(-c3ccc4cccnc4c3)cc1)N(C[C@@H]1CCN(S(C)(=O)=O)C1)C2=O [compound 900, (S)-methyl 7-((1-(methylsulfionyl)pyrrolidin-3-yl)methyl)-8-oxo-6-(4-(quinolin-7-yl)phenyl)-2,5,7-triazaspiro[3.4]oct-5-ene-2-carboxylate] | > 10 | > 10 | 9 | > 10
Cn1cc(-c2ccc(-c3ccc(C4=NC5(CCOCC5)C(=O)N4C[C@@H]4CCN(S(C)(=O)=O)C4)cc3)cc2)cn1 [compound 918, (S)-2-(4′-(1-metrhyl-1H-pyrazol-4-yl)-[1,1′-biphenyl]-4-yl)-3-((1-(methylsulfonyl)pyrrolidin-3-yl)methyl)-8-oxa-1,3-diazaspiro[4.5]dec-1-en-4-one] | > 10 | > 10 | 2 | > 10
COC(=O)N1CC(CN2C(=O)C3(CCOCC3)N=C2c2ccc(-c3ccc4cccnc4c3)cc2)C1 [compound 922, methyl 3-((4-oxo-2-(4-(quinolin-7-yl)phenyl)-8-oxa-1,3-diazaspiro[4.5]dec-1-en-3-yl)methyl)azetidine-1-carboxylate] | > 10 | > 10 | 38 | > 10
COC(=O)N1CC2(C1)N=C(c1ccc(-c3ccc4c(cnn4C)c3)cc1)N(C[C@@H]1CCN(C(=O)c3nccs3)C1)C2=O [compound 923, (R)-methyl 6-(4-(1-methyl-1H-indazol-5-yl)phenyl)-8-oxo-7-((1-(thiazole-2-carbonyl)pyrrolidin-3-yl)methyl)-2,5,7-triazaspiro[3.4]oct-5-ene-2-carboxylate] | > 10 | > 10 | 27 | > 10
Cn1ncc2cc(-c3ccc(C4=NC5(CCOC5)C(=O)N4CC4CN(C(=O)C(F)(F)F)C4)cc3)ccc21 (stereo not drawn) [compound 937, 2-(4-(1-methyl-1H-indazol-5-yl)phenyl)-3-((1-(2,2,2-trifluoroacetyl)azetidin-3-yl)methyl)-7-oxa-1,3-diazaspiro[4.4]non-1-en-4-one] | > 10 | > 10 | -9 | > 10
O=C(N1CCC(CN2C(=O)C3(CCOC3)N=C2c2ccc(-c3ccc4occc4c3)cc2)C1)C(F)(F)F (stereo not drawn) [compound 938, 2-(4-(benzofuran-5-yl)phenyl)-3-((1-(2,2,2-trifluoroacetyl)pyrrolidin-3-yl)methyl)-7-oxa-1,3-diazaspiro[4.4]non-1-en-4-one] | 7.94 | > 10 | 43 | > 10
Cn1cc(-c2ccc(-c3ccc(C4=NC5(CCOC5)C(=O)N4CC4CCN(S(C)(=O)=O)C4)cc3)cc2)cn1 (stereo not drawn) [compound 939, 2-(4′-(1-methyl-1H-pyrazol-4-yl)-[1,1′-biphenyl]-4-yl)-3-((1-(methylsulfonyl)pyrrolidin-3-yl)methyl)-7-oxa-1,3-diazaspiro[4.4]non-1-en-4-one] | > 10 | > 10 | 2 | > 10
Cn1cc(-c2ccc(-c3ccc(C4=NC5(CCOC5)C(=O)N4CC4CCN(C(=O)C(F)(F)F)C4)cc3)cc2)cn1 (stereo not drawn) [compound 940, 2-(4′-(1-methyl-1H-pyrazol-4-yl)-[1,1′-biphenyl]-4-yl)-3-((1-(2,2,2-trifluoroacetyl)pyrrolidin-3-yl)methyl)-7-oxa-1,3-diazaspiro[4.4]non-1-en-4-one] | > 10 | > 10 | 33 | > 10
Cn1cc(-c2ccc(-c3ccc(C4=NC5(CCOC5)C(=O)N4CC4CCN(C(=O)c5nccs5)C4)cc3)cc2)cn1 (stereo not drawn) [compound 943, 2-(4′-(1-methyl-1H-pyrazol-4-yl)-[1,1′-biphenyl]-4-yl)-3-((1-(thiazole-2-carbonyl)pyrrolidin-3-yl)methyl)-7-oxa-1,3-diazaspiro[4.4]non-1-en-4-one] | > 10 | > 10 | 9 | > 10
